Reference: ChEMBL document CHEMBL1138139, “Synthesis of 1-(3',4',5'-trimethoxy) phenyl naphtho[2,1b]furan as a novel anticancer agent” (Bioorg Med Chem Lett, 2006)
Values after ≈ are worked out from the molar mass of the structure shown.

Experiments:
Type in all cases: functional, cell-based
PA-1 = assay: Cytotoxicity against human PA1 cell line by MTT assay
KB = assay: Cytotoxicity against human KB403 cell line by MTT assay
WRL68 = assay: Cytotoxicity against human WRL68 cell line by MTT assay
COLO 320DM = assay: Cytotoxicity against human COLO320DM cell line by MTT assay
Caco-2 = assay: Cytotoxicity against human Caco-2 cell line by MTT assay
MCF7 = assay: Cytotoxicity against MCF7 cell line by MTT assay; details: Homo sapiens

Structure (SMILES) | IC50 (PA-1) | IC90 (PA-1) | IC50 (KB) | IC90 (KB) | IC50 (WRL68) | IC90 (WRL68) | IC50 (COLO 320DM) | IC90 (COLO 320DM) | IC50 (Caco-2) | IC90 (Caco-2) | IC90 (MCF7)
COc1cc(-c2coc3ccc4ccccc4c23)cc(OC)c1OC | 3.5 µg/mL (≈ 10.5 µM) | 4.5 µg/mL (≈ 13.5 µM) | 8 µg/mL (≈ 23.9 µM) | 10 µg/mL (≈ 29.9 µM) | 0.7 µg/mL (≈ 2.09 µM) | 5 µg/mL (≈ 15 µM) | 0.65 µg/mL (≈ 1.94 µM) | 4 µg/mL (≈ 12 µM) | 0.5 µg/mL (≈ 1.5 µM) | – | –
CC(=O)O[C@H]1C(=O)[C@@]2(C)[C@H]([C@H](OC(=O)c3ccccc3)[C@]3(O)C[C@H](OC(=O)[C@H](O)[C@@H](NC(=O)c4ccccc4)c4ccccc4)C(C)=C1C3(C)C)[C@]1(OC(C)=O)CO[C@@H]1C[C@@H]2O [PACLITAXEL] | 0.006 µg/mL (≈ 0.00703 µM) | 0.9 µg/mL (≈ 1.05 µM) | 0.001 µg/mL (≈ 0.00117 µM) | 0.047 µg/mL (≈ 0.055 µM) | 0.0035 µg/mL (≈ 0.0041 µM) | 2.5 µg/mL (≈ 2.93 µM) | 0.0045 µg/mL (≈ 0.00527 µM) | 0.01 µg/mL (≈ 0.0117 µM) | 0.007 µg/mL (≈ 0.0082 µM) | 0.065 µg/mL (≈ 0.0761 µM) | 0.85 µg/mL (≈ 0.995 µM)
COc1ccc(-c2coc3ccc4ccccc4c23)cc1 | 4 µg/mL (≈ 14.6 µM) | 8 µg/mL (≈ 29.2 µM) | – | – | 6 µg/mL (≈ 21.9 µM) | – | 5 µg/mL (≈ 18.2 µM) | – | 0.95 µg/mL (≈ 3.46 µM) | 7.5 µg/mL (≈ 27.3 µM) | –
c1ccc(-c2coc3ccc4ccccc4c23)cc1 | – | – | 9 µg/mL (≈ 36.8 µM) | – | – | – | – | – | – | – | –
